Values quoted from earlier work as cited in patent US12552784B2, “1H-pyrrolo[2,3-b]pyridine derivatives as BCL-2 inhibitors for the treatment of neoplastic and autoimmune diseases” (priority 2019, dated 2026).

Assays:
small-cell lung cancer = conditions: oral administration alone
H345 xenograft model = conditions: 100 mg/kg/day
[1] = in vivo
SCLC H146 cell line = conditions: read-out: IC50 against SCLC H146 cell line
Bcl-w = biological target: T1, Bcl-w (Homo sapiens, UniProt Q92843)
T1 sequence (Q92843 1-193): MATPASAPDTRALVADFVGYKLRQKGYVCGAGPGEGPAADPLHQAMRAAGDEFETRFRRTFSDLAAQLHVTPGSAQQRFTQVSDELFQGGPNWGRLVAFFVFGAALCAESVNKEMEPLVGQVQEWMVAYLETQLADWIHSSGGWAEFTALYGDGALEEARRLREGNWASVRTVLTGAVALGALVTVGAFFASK

[2] = system: acute lymphoblastic leukemia; conditions: oral administration alone
Granta-519 = conditions: single agent or in combination with Bendamustine and other agents
CLL = conditions: average; read-out: EC50 apoptosis in CLL
[3] = system: CLL who have 17p deletion; conditions: Human Phase I and II
DoHH2 = conditions: single agent or in combination with Bendamustine and other agents
RS4;11 xenografts = conditions: single dose of 100 mg/kg
established tumors = conditions: animal models

CC1(C)CCC(c2ccc(Cl)cc2)=C(CN2CCN(c3ccc(C(=O)NS(=O)(=O)c4ccc(N[C@H](CCN5CCOCC5)CSc5ccccc5)c(S(=O)(=O)C(F)(F)F)c4)cc3)CC2)C1 [ABT-263]
tumor regression (small-cell lung cancer): complete tumor regressions
TGI (H345 xenograft model): 80%
treated tumors indicating at least a 50% reduction in tumor volume (H345 xenograft model): 20%
oral bioavailability [1]: orally bioavailable
number of circulating platelets (circulating platelets; clinical trial): rapid, concentration-dependent decrease
dose-limiting toxicity (circulating platelets; single-agent treatment in patients): mechanism-based thrombocytopenia
IC50 (SCLC H146 cell line): 110 nM
Ki (Bcl-w): ≤ 1 nM
tumor regression [2]: complete tumor regressions

CC1(C)CCC(CN2CCN(c3ccc(C(=O)NS(=O)(=O)c4ccc(NCC5CCOCC5)c([N+](=O)[O-])c4)c(Oc4cnc5[nH]ccc5c4)c3)CC2)=C(c2ccc(Cl)cc2)C1 [ABT-199]
xenograft growth (Granta-519): inhibits xenograft growth
EC50 (CLL): 3 nM
clinical efficacy [3]: highly efficacious
xenograft growth (DoHH2): inhibits xenograft growth
EC50 (RS4;11 cells): 8 nM
apoptosis in RS4;11 cells (RS4;11 cells; with cytochrome c release, caspase activation, accumulation of sub-G0/G1 DNA): rapid apoptosis
maximal tumor growth inhibition (RS4;11 xenografts): 95%
tumor growth delay (RS4;11 xenografts): 152%

CN(C)CC[C@H](CSc1ccccc1)Nc1ccc(S(=O)(=O)NC(=O)c2ccc(N3CCN(Cc4ccccc4-c4ccc(Cl)cc4)CC3)cc2)cc1[N+](=O)[O-] [ABT-737]
aqueous solubility: low aqueous solubility
oral bioavailability [1]: not orally bioavailable
cures (established tumors): produces cures in a high percentage of the mice
survival (established tumors): improves survival
tumor regression (established tumors): causes regression of established tumors
